PubChem BioAssay (NCI)
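How tested: cells in 96-well plates exposed to compound for 48 hours at five concentrations. The concentration for 50% growth inhibition is given as GI50. TGI: total growth inhibition.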

Columns and labels:
Assay in all cases: growth of human tumour cells (NCI), 48 h
[1] = test system: SF-295 CNS
[2] = test system: COLO 205 colon
[3] = test system: HCT-116 colon
[4] = test system: TK-10 renal
[5] = test system: MALME-3M melanoma
[6] = test system: OVCAR-5 ovarian
[7] = test system: NCI-H522 lung
[8] = test system: NCI/ADR-RES ovarian
[9] = test system: SR leukemia
[10] = test system: KM12 colon
[11] = test system: ACHN renal
[12] = test system: SK-MEL-2 melanoma
[13] = test system: SF-539 CNS
[14] = test system: EKVX NSCLC
[15] = test system: MCF7 breast
[16] = test system: HT29 colon
[17] = test system: HOP-62 NSCLC
[18] = test system: SF-268 CNS
[19] = test system: HS 578T breast
[20] = test system: BT-549 breast
[21] = test system: RXF 393 renal
[22] = test system: DU-145 prostate
[23] = test system: NCI-H23 lung
[24] = test system: MDA-MB-435
[25] = test system: SK-MEL-5 melanoma
[26] = test system: NCI-H460 lung
[27] = test system: SK-MEL-28 melanoma
[28] = test system: IGROV1 ovarian
[29] = test system: CCRF-CEM leukemia

Compound: CCc1n(Cc2ccc3ccccc3n2)cc[n+]1Cc1ccc2ccccc2n1
- TGI [1]: 20100 nM
- GI50 [2]: 59.6 nM
- TGI [2]: 705 nM
- GI50 [3]: 1350 nM
- TGI [3]: 29700 nM
- GI50 [4]: 5500 nM
- TGI [4]: 26300 nM
- GI50 [5]: 128 nM
- TGI [5]: 973 nM
- GI50 [6]: 1480 nM
- TGI [6]: 22900 nM
- GI50 [7]: 83.7 nM
- TGI [7]: 1490 nM
- GI50 [8]: > 100000 nM
- TGI [8]: > 100000 nM
- GI50 [9]: 75.3 nM
- TGI [9]: 12500 nM
- GI50 [10]: 185 nM
- TGI [10]: 11300 nM
- GI50 [11]: 28000 nM
- TGI [11]: > 100000 nM
- GI50 [12]: 217 nM
- TGI [12]: 2110 nM
- GI50 [13]: 681 nM
- TGI [13]: 15800 nM
- GI50 [14]: 343 nM
- TGI [14]: 41500 nM
- GI50 [15]: 135 nM
- TGI [15]: 11600 nM
- GI50 [16]: 263 nM
- TGI [16]: 12000 nM
- GI50 [17]: 4660 nM
- TGI [17]: 31500 nM
- GI50 [18]: 453 nM
- TGI [18]: 14200 nM
- GI50 [19]: 1880 nM
- TGI [19]: 26100 nM
- GI50 [20]: 278 nM
- TGI [20]: 11200 nM
- GI50 [21]: 982 nM
- TGI [21]: 13000 nM
- GI50 [22]: 1930 nM
- TGI [22]: 51700 nM
- GI50 [23]: 257 nM
- TGI [23]: 8660 nM
- GI50 [24]: 141 nM
- TGI [24]: 10300 nM
- GI50 [25]: 65.3 nM
- TGI [25]: 1020 nM
- GI50 [26]: 511 nM
- TGI [26]: 11900 nM
- GI50 [27]: 196 nM
- TGI [27]: 14700 nM
- GI50 [28]: 214 nM
- TGI [28]: 16700 nM
- GI50 [29]: 388 nM
- TGI [29]: 15400 nM
